Measured values taken from the Kinase Knowledgebase extract (Sharma et al. 2016).
pIC50, pKi: −log10 of the molar value.

Tests used:
EGFR [1] = biological target: EGFR (UniProt P00533)
EGFR [2] = biological target: EGFR (UniProt P00533); remark: listed apart in the source

Sequence of EGFR (P00533 whole entry, looked up): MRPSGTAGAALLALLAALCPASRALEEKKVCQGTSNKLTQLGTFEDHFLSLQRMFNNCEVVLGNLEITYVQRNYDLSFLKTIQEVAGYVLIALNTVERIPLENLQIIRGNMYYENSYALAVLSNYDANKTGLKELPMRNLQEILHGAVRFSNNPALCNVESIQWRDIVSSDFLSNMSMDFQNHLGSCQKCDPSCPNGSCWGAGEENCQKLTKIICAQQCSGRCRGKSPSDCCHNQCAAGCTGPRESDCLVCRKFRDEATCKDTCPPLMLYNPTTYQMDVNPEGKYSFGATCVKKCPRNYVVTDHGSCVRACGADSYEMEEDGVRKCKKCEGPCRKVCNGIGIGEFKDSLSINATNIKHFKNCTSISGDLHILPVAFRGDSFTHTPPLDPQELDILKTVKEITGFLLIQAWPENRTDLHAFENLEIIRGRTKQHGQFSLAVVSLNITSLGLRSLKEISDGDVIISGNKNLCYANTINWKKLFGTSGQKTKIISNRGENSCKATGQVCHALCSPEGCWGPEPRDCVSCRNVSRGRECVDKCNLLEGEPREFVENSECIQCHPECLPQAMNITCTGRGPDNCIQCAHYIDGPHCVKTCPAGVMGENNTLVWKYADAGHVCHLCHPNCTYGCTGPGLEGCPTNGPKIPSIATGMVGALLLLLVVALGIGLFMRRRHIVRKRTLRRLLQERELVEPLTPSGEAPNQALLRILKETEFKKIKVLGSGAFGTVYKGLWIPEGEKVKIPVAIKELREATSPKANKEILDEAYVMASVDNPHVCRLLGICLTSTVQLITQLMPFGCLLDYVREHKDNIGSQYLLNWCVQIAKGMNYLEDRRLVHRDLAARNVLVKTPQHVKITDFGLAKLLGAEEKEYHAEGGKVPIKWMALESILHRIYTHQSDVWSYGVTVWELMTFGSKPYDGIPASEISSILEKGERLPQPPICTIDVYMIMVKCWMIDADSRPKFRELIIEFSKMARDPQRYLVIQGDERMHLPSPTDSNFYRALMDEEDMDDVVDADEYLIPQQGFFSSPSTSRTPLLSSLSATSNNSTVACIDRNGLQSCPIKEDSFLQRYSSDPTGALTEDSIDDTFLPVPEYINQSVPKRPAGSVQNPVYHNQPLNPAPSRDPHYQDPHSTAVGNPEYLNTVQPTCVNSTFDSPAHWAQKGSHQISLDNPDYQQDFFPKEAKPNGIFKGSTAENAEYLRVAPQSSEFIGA

SMILES	pIC50 (EGFR [1])	pIC50 (EGFR [2])	pKi (EGFR [2])
N#C/C(=C\c1ccc(O)c(O)c1)C(=O)O	3.40	–	–
N#C/C(=C\c1ccc(O)c(O)c1)C(N)=O	5.40	–	–
O=C(O)/C=C/c1cc(O)ccc1O	–	5.36	–
N#C/C(=C\c1ccc([N+](=O)[O-])cc1)C(=O)O	–	–	2.89
N#CC(C#N)=Cc1cc(O)cc(O)c1	3.80	–	5.00
N#CC(C#N)=Cc1cc(O)c(O)c(O)c1	4.82	–	6.00
N#CC(C#N)=C(N)/C(C#N)=C/c1ccc(O)c(O)c1	5.74	–	–
N#CC(C#N)=C(O)c1cc(O)c(O)c(O)c1	4.46	–	–
COc1cc(C=C(C#N)C#N)cc(O)c1O	4.70	–	–
